Results from patent publication US20250195457A1, “PHARMACEUTICAL COMPOSITION FOR TREATMENT OF PARKINSON'S DISEASE” (Eisai R&D Management Co., Ltd., priority 2022, published 2025).

Test system: Parkinson's disease model cynomolgus monkeys (MPTP)
Assay: Test Example 1: NDSs after administration of Compound (I) alone in MPTP Parkinson's disease model monkeys
Format: in vivo
Parameters: key to Subgroup 2: Specific motor functions score: specific motor functions subscore, range 0-21
Method: The therapeutic effect of Compound (I) on Parkinson's disease was examined using Parkinson's disease model animals which are produced by administering MPTP (1-methyl-4-phenyl-1,2,3,6-tetrahydropyridine).
MPTP was administered to male cynomolgus monkeys at the age of 4 to 5 to make Parkinson's disease model cynomolgus monkeys. MPTP was additionally administered to animals with neurologic deficit scores (Neurological deficit scores: NDSs, Schneider et al., “Development of levodopa-induced dyskinesias in parkinsonian monkeys may depend upon rate of symptom onset and/or duration of symptoms”, Brain Res., 2003, 990:38-44.) of less than 25.
Eight Parkinson's disease model cynomolgus monkeys were randomized into 5 groups of approximately equal mean and variance in terms of Parkinson behavior rating (Tremor score) and body weight. On subsequent cycle 2, cycle 3, cycle 4 and cycle 5, the animals were crossed over to receive the other treatments. A wash out period of one week or more was set between each cycle.
By the end of the study, each animal had received all the five treatments. Istradefylline is an adenosine A2A receptor antagonist approved as a drug for improving a wearing off phenomenon in Parkinson's disease being treated with a levodopa-containing preparation in the United States of America and Japan (Patent Literature 4). As a vehicle, an aqueous solution containing 0.43% (w/v) methyl cellulose 400, 10% (v/v) dimethyl sulfoxide (DMSO), and 4.5% (w/v) Cremophor (R) was used.
Before the administration, and 1 hr., 4 hrs., and 24 hrs. after the administration of the test substances, the NDSs of the monkeys were evaluated. The evaluation items are as follows. The behavior evaluation was performed in a blinded manner. The NDSs of the groups were compared using Steel's test. The p-values of less than 0.05 were considered to be statistically significant.
Subgroup 1: generalized behaviors (0-32) • 1.1a Appetite • 0: Normal • 1: Up to 30% food left • 2: Up to 65% food left • 3: Greater than 65% food left • 1.1b Response to offered food • 0: Responds to offered food • 1: Inconsistent response to offered food • 2: Little to no interest in offered food • 1.2 Overall activity • 0: Normal • 1: Mild hypokinesia; decrease in spontaneous movement • 2: Moderate hypokinesia; sparse spontaneous movement • 3: Severe hypokinesia; no spontaneous movement; tends to remain in one place • 1.3 Appearance • 0: Normal • 1: Mild but noticeable decrease in self-maintenance • 2: Moderate decrease in self-maintenance • 3: Severe lack of self-maintenance • 1.4 Posture • 0: Normal • 1: Minor flexing or stooping • 2: Moderate flexing or stooping; head and upper body almost parallel to floor of cage • 3: Severe flexing or stooping; head lowered to feet • 1.5 Balance • 0: Normal • 1: Mild loss on arising or movement • 2: Moderate loss on arising or movement; occasionally falls or supports self to keep from falling • 3: Severe loss of balance; falls • 1.6 Climbing • 0: Climbing observed with no delays in initiation/execution • 1: Mild deficit in ability to climb and support weight • 2: Moderate deficit in ability to climb and support weight; tends to ‘slide down’ • 3: Absence of any climbing behavior • 1.7 Tremor • 0: Absent • 1: Slight and intermittent • 2: Slight and persistent or moderate and intermittent • 3: Moderate/severe and persistent • 1.8 Freezing during movement • 0: Absent • 1: Occasional freezing for brief periods • 2: Occasional freezing for prolonged periods or frequent freezing for brief periods • 3: Prolonged and frequent freezing • 1.9 Facial expression • 0: Normal • 1: Mild hypomimia • 2: Moderate hypomimia • 3: Severe, masked fixed faces • 1.10 Defense reaction • 0: Normal • 1: Mild, noticeable reduction in reaction or slowed reaction, but can be provoked to react • 2: Moderate reduction in reaction; can produce facial display but not body reaction • 3: Little to no response
Subgroup 2: Specific Motor Functions (0-21)

[1] = Compound (I) high dose 50 mg/kg (G4), 1 hr. after administration
[2] = Compound (I) high dose 50 mg/kg (G4), 4 hrs. after administration
[3] = Compound (I) high dose 50 mg/kg (G4), 24 hrs. after administration
[4] = Compound (I) high dose 50 mg/kg (G4), Pre (before administration)
[5] = Compound (I) low dose 5 mg/kg (G2), 1 hr. after administration
[6] = Compound (I) low dose 5 mg/kg (G2), 4 hrs. after administration
[7] = Compound (I) low dose 5 mg/kg (G2), 24 hrs. after administration
[8] = Compound (I) low dose 5 mg/kg (G2), Pre (before administration)
[9] = Compound (I) middle dose 15 mg/kg (G3), 1 hr. after administration
[10] = Compound (I) middle dose 15 mg/kg (G3), 4 hrs. after administration
[11] = Compound (I) middle dose 15 mg/kg (G3), 24 hrs. after administration
[12] = Compound (I) middle dose 15 mg/kg (G3), Pre (before administration)

NS(=O)(=O)N[C@H]1c2c(F)cc(F)cc2CC1(F)F [Compound (I), N-[(1S)-2,2,5,7-tetrafluoro-2,3-dihydro-1H-inden-1-yl]sulfamide]
Subgroup 1: GENERALIZED BEHAVIORS score [1]: 17.1 ± 0.8 | Subgroup 2: Specific motor functions score [1]: 12.0 ± 0.5 | Total score of NDSs [1]: 29.1 ± 1.3 | Tremor score [1]: 1.6 ± 0.2 | Subgroup 1: GENERALIZED BEHAVIORS score [2]: 14.8 ± 1.0 | Subgroup 2: Specific motor functions score [2]: 9.9 ± 0.5 | Total score of NDSs [2]: 24.6 ± 1.3 | Tremor score [2]: 1.1 ± 0.1 | Subgroup 1: GENERALIZED BEHAVIORS score [3]: 17.3 ± 1.1 | Subgroup 2: Specific motor functions score [3]: 12.0 ± 0.6 | Total score of NDSs [3]: 29.3 ± 1.6 | Tremor score [3]: 1.4 ± 0.2 | Subgroup 1: GENERALIZED BEHAVIORS score [4]: 19.0 ± 0.8 | Subgroup 2: Specific motor functions score [4]: 13.5 ± 0.4 | Total score of NDSs [4]: 32.5 ± 1.1 | Tremor score [4]: 2.1 ± 0.1 | Subgroup 1: GENERALIZED BEHAVIORS score [5]: 16.1 ± 0.9 | Subgroup 2: Specific motor functions score [5]: 11.5 ± 0.6 | Total score of NDSs [5]: 27.6 ± 1.5 | Tremor score [5]: 1.8 ± 0.2 | Subgroup 1: GENERALIZED BEHAVIORS score [6]: 16.0 ± 0.7 | Subgroup 2: Specific motor functions score [6]: 12.5 ± 0.3 | Total score of NDSs [6]: 28.5 ± 1.0 | Tremor score [6]: 1.8 ± 0.2 | Subgroup 1: GENERALIZED BEHAVIORS score [7]: 17.1 ± 0.8 | Subgroup 2: Specific motor functions score [7]: 11.9 ± 0.4 | Total score of NDSs [7]: 29.0 ± 1.0 | Tremor score [7]: 2.1 ± 0.1 | Subgroup 1: GENERALIZED BEHAVIORS score [8]: 17.4 ± 0.8 | Subgroup 2: Specific motor functions score [8]: 13.3 ± 0.5 | Total score of NDSs [8]: 30.6 ± 1.1 | Tremor score [8]: 2.0 ± 0.0 | Subgroup 1: GENERALIZED BEHAVIORS score [9]: 15.5 ± 1.0 | Subgroup 2: Specific motor functions score [9]: 12.3 ± 0.5 | Total score of NDSs [9]: 27.8 ± 1.5 | Tremor score [9]: 1.6 ± 0.2 | Subgroup 1: GENERALIZED BEHAVIORS score [10]: 15.0 ± 0.8 | Subgroup 2: Specific motor functions score [10]: 11.5 ± 0.4 | Total score of NDSs [10]: 26.5 ± 1.0 | Tremor score [10]: 1.6 ± 0.2 | Subgroup 1: GENERALIZED BEHAVIORS score [11]: 16.8 ± 0.9 | Subgroup 2: Specific motor functions score [11]: 12.8 ± 0.3 | Total score of NDSs [11]: 29.5 ± 1.1 | Tremor score [11]: 1.8 ± 0.2 | Subgroup 1: GENERALIZED BEHAVIORS score [12]: 17.3 ± 0.6 | Subgroup 2: Specific motor functions score [12]: 12.9 ± 0.4 | Total score of NDSs [12]: 30.1 ± 0.9 | Tremor score [12]: 2.0 ± 0.0
